These results are taken from ChEMBL document CHEMBL3112432, “Synthesis of 5α-cholestan-6-one derivatives and their inhibitory activities of NO production in activated microglia: discovery of a novel neuroinflammation inhibitor” (Bioorg Med Chem Lett, 2014).

Data set [1] in a line: Antiinflammatory activity in LPS-stimulated mouse BV2 cells assessed as inhibition of NO production at 40 uM after 24 hrs by Griess method relative to control. In kind it is functional. Particulars: BV-2, 24 h.
Data set [2] in a line: Cytotoxicity against mouse BV2 cells assessed as cell viability at 40 uM after 24 hrs by MTT assay relative to control. In kind it is cell-based, BV-2. The following applies: read-out: Activity.
The next data set relates to BV-2. Kind of data set: Antiinflammatory activity in LPS-stimulated mouse BV2 cells assessed as inhibition of NO production after 24 hrs by Griess method. In kind it is functional, cell-based. (In general: The Griess reaction detects nitrite, a stable product of nitric oxide.)

On to `COC(=O)CC[C@@H](C)[C@H]1CC[C@H]2[C@@H]3[C@H](F)C(=O)[C@H]4C[C@@H](O)CC[C@]4(C)[C@H]3CC[C@]12C`, for which the inhibition (as a rule, the change of the read-out against control, counted positive when it falls) at 40 µM in data set [1] was determined as 43.9%. Moreover, in data set [2], the viability at 24 h, 40 µM was 23.1%.

With `COC(=O)CC[C@@H](C)[C@H]1CC[C@H]2[C@@H]3[C@H](F)C(=O)[C@H]4C[C@H](O)CC[C@]4(C)[C@H]3CC[C@]12C`, in data set [1], the inhibition at 40 µM amounted to 47.2%. In addition, the viability at 24 h, 40 µM in data set [2] was 73.7%.

Regarding `COC(=O)CC[C@@H](C)[C@H]1CC[C@H]2[C@@H]3CC(=O)[C@H]4C[C@H](O)[C@@H](Br)C[C@]4(C)[C@H]3CC[C@]12C`, the inhibition at 40 µM in data set [1] turned out to be 42.7%. Further, the viability at 24 h, 40 µM in data set [2] is 91.4%.

As to `COC(=O)CC[C@@H](C)[C@H]1CC[C@H]2[C@@H]3[C@H](F)C(=O)[C@H]4C[C@@H](F)CC[C@]4(C)[C@H]3CC[C@]12C`, the inhibition at 40 µM in data set [1] was found to be 39.1%. The viability at 24 h, 40 µM in data set [2] came out at 92.2%.

On to `C[C@H]([C@H](O)CO)[C@H]1CC[C@H]2[C@@H]3[C@H](O)C(=O)[C@H]4C[C@H](O)CC[C@]4(C)[C@H]3CC[C@]12C`, for which the inhibition at 40 µM in data set [1] came to 47.1%. In data set [2], the viability at 24 h, 40 µM was 95.7%.

As for `COC(=O)CC[C@@H](C)[C@H]1CC[C@H]2[C@@H]3CC(=O)[C@H]4C[C@@H](O)CC[C@]4(C)[C@H]3CC[C@]12C`, the inhibition at 40 µM in data set [1] was determined as 18.1%. Moreover, the viability at 24 h, 40 µM in data set [2] came to 27.8%.

Take `C=C[C@@H](C)[C@H]1CC[C@H]2[C@@H]3CC(=O)[C@H]4C[C@H](O)CC[C@]4(C)[C@H]3CC[C@]12C`: the inhibition at 40 µM in data set [1] stood at 24.5%. For the same compound, the viability at 24 h, 40 µM in data set [2] was found to be 96.4%.

Regarding `C[C@H]([C@H](O)CO)[C@H]1CC[C@H]2[C@@H]3CC(=O)[C@H]4C[C@H](O)CC[C@]4(C)[C@H]3CC[C@]12C`, in the data set with BV-2, the inhibition entry was “Dose-dependent effect”. The inhibition at 40 µM in data set [1] came to 60.4%. The viability at 24 h, 40 µM in data set [2] is 95.9%.

Take `COC(=O)CC[C@@H](C)[C@H]1CC[C@H]2[C@@H]3CC(=O)[C@H]4C[C@@H]5O[C@@H]5C[C@]4(C)[C@H]3CC[C@]12C`: in data set [1], the inhibition at 40 µM worked out at 48.6%. In addition, the viability at 24 h, 40 µM in data set [2] was determined as 99.5%.

For `COC(=O)CC[C@@H](C)[C@H]1CC[C@H]2[C@@H]3[C@H](F)C(=O)[C@H]4C[C@H](O)[C@@H](F)C[C@]4(C)[C@H]3CC[C@]12C`, in the data set with BV-2, the inhibition entry is “Dose-dependent effect”. Further, in data set [1], the inhibition at 40 µM came out at 70%. For the same compound, the viability at 24 h, 40 µM in data set [2] came to 96.2%.

Turning to `COC(=O)CC[C@@H](C)[C@H]1CC[C@H]2[C@@H]3[C@H](O)C(=O)[C@H]4C[C@@H](F)CC[C@]4(C)[C@H]3CC[C@]12C`, the inhibition result in the data set on BV-2 was “Dose-dependent effect”. Also, the inhibition at 40 µM in data set [1] was determined as 64.2%. For the same compound, the viability at 24 h, 40 µM in data set [2] stood at 92.4%.

Take `C=C[C@@H](C)[C@H]1CC[C@H]2[C@@H]3[C@H](O)C(=O)[C@H]4C[C@@H](O)CC[C@]4(C)[C@H]3CC[C@]12C`: the inhibition at 40 µM in data set [1] amounted to 59.5%. In addition, the viability at 24 h, 40 µM in data set [2] was found to be 81.8%.

Take `C[C@]12CC[C@H](O)CC1=CC[C@@H]1[C@@H]2CC[C@]2(C)C(=O)CC[C@@H]12` [PRASTERONE]: in data set [1], the inhibition at 40 µM turned out to be 55.3%. The viability at 24 h, 40 µM in data set [2] is 99.1%.

As to `COC(=O)CC[C@@H](C)[C@H]1CC[C@H]2[C@@H]3[C@H](O)C(=O)[C@H]4C[C@@H](O)CC[C@]4(C)[C@H]3CC[C@]12C`, in the data set with BV-2, the inhibition result was “Dose-dependent effect”. The inhibition at 40 µM in data set [1] was 71.1%. The viability at 24 h, 40 µM in data set [2] worked out at 96.3%.

As to `COC(=O)CC[C@@H](C)[C@H]1CC[C@H]2[C@@H]3CC(=O)[C@H]4C[C@H](O)[C@H](O)C[C@]4(C)[C@H]3CC[C@]12C`, the inhibition at 40 µM in data set [1] stood at 74.1%. Also, in data set [2], the viability at 24 h, 40 µM came out at 81.1%.

As for `C=C[C@@H](C)[C@H]1CC[C@H]2[C@@H]3[C@H](O)C(=O)[C@H]4C[C@@H](F)CC[C@]4(C)[C@H]3CC[C@]12C`, the inhibition at 40 µM in data set [1] came out at 43.2%. Moreover, the viability at 24 h, 40 µM in data set [2] was found to be 87%.

For `COC(=O)CC[C@@H](C)[C@H]1CC[C@H]2[C@@H]3CC(=O)[C@H]4C[C@H](O)[C@@H](F)C[C@]4(C)[C@H]3CC[C@]12C`, the inhibition at 40 µM in data set [1] was found to be 46.1%. Further, the viability at 24 h, 40 µM in data set [2] was found to be 95.8%.

Turning to `C=C[C@@H](C)[C@H]1CC[C@H]2[C@@H]3CC(=O)[C@H]4C[C@H](O)[C@H](O)C[C@]4(C)[C@H]3CC[C@]12C`, the inhibition at 40 µM in data set [1] is 65.7%. In data set [2], the viability at 24 h, 40 µM worked out at 48.2%.

Consider `C=C[C@@H](C)[C@H]1CC[C@H]2[C@@H]3[C@H](O)C(=O)[C@H]4C[C@H](O)[C@@H](F)C[C@]4(C)[C@H]3CC[C@]12C`, for which the inhibition at 40 µM in data set [1] turned out to be 92.7%. Further, the viability at 24 h, 40 µM in data set [2] was determined as 55.9%.

For the compound `COC(=O)CC[C@@H](C)[C@H]1CC[C@H]2[C@@H]3[C@H](F)C(=O)[C@H]4C[C@H](O)[C@H](O)C[C@]4(C)[C@H]3CC[C@]12C`, in data set [1], the inhibition at 40 µM was found to be 72.4%. Further, in data set [2], the viability at 24 h, 40 µM is 69.9%.

`COC(=O)CC[C@@H](C)[C@H]1CC[C@H]2[C@@H]3CC(=O)[C@H]4C[C@H](O)[C@@H](O)C[C@]4(C)[C@H]3CC[C@]12C`: the inhibition at 40 µM in data set [1] was found to be 44.9%. Besides, in data set [2], the viability at 24 h, 40 µM came to 79.5%.

Consider `COC(=O)CC[C@@H](C)[C@H]1CC[C@H]2[C@@H]3CC(=O)[C@H]4CC(=O)CC[C@]4(C)[C@H]3CC[C@]12C`, for which the inhibition at 40 µM in data set [1] is 48.2%. For the same compound, in data set [2], the viability at 24 h, 40 µM was 78%.

As to `C[C@H]([C@H](O)CO)[C@H]1CC[C@H]2[C@@H]3CC(=O)[C@H]4C[C@H](O)[C@H](O)C[C@]4(C)[C@H]3CC[C@]12C`, the inhibition at 40 µM in data set [1] worked out at 22.6%. The viability at 24 h, 40 µM in data set [2] came out at 94%.

On to `C[C@H]([C@H](O)CO)[C@H]1CC[C@H]2[C@@H]3[C@H](F)C(=O)[C@H]4C[C@H](O)CC[C@]4(C)[C@H]3CC[C@]12C`, for which the inhibition result with BV-2 was “Dose-dependent effect”. Moreover, in data set [1], the inhibition at 40 µM is 68.1%. Further, the viability at 24 h, 40 µM in data set [2] amounted to 95.1%.

Regarding `C=C[C@@H](C)[C@H]1CC[C@H]2[C@@H]3[C@H](F)C(=O)[C@H]4C[C@H](O)[C@@H](F)C[C@]4(C)[C@H]3CC[C@]12C`, the inhibition at 40 µM in data set [1] came out at 63.8%. Moreover, the viability at 24 h, 40 µM in data set [2] was 86.8%.

For the compound `COC(=O)CC[C@@H](C)[C@H]1CC[C@H]2[C@@H]3[C@H](F)C(=O)[C@H]4C[C@@H]5O[C@@H]5C[C@]4(C)[C@H]3CC[C@]12C`, the inhibition at 40 µM in data set [1] was 32.6%. In addition, the viability at 24 h, 40 µM in data set [2] was 97.2%.

On to `COC(=O)CC[C@@H](C)[C@H]1CC[C@H]2[C@@H]3CC(=O)[C@H]4C[C@H](O)CC[C@]4(C)[C@H]3CC[C@]12C`, for which, in data set [1], the inhibition at 40 µM came to 39.4%. Moreover, the viability at 24 h, 40 µM in data set [2] amounted to 87.7%.

As for `C=C[C@@H](C)[C@H]1CC[C@H]2[C@@H]3[C@H](O)C(=O)[C@H]4C[C@H](O)CC[C@]4(C)[C@H]3CC[C@]12C`, the inhibition at 40 µM in data set [1] turned out to be 69.6%. Further, the viability at 24 h, 40 µM in data set [2] was determined as 76.6%.

With `COC(=O)CC[C@@H](C)[C@H]1CC[C@H]2[C@@H]3CC(=O)[C@H]4C[C@@H](Cl)CC[C@]4(C)[C@H]3CC[C@]12C`, the inhibition at 40 µM in data set [1] amounted to 35.9%. Moreover, the viability at 24 h, 40 µM in data set [2] came to 79%.

With `C[C@H]([C@H](O)CO)[C@H]1CC[C@H]2[C@@H]3[C@H](O)C(=O)[C@H]4C[C@@H](F)CC[C@]4(C)[C@H]3CC[C@]12C`, in data set [1], the inhibition at 40 µM was found to be 91.9%. Moreover, in data set [2], the viability at 24 h, 40 µM turned out to be 78.6%.

`C[C@H]([C@H](O)CO)[C@H]1CC[C@H]2[C@@H]3[C@H](F)C(=O)[C@H]4C[C@@H](F)CC[C@]4(C)[C@H]3CC[C@]12C`: in data set [1], the inhibition at 40 µM was 35.9%. Further, in data set [2], the viability at 24 h, 40 µM was 81.7%.

As for `COC(=O)CC[C@@H](C)[C@H]1CC[C@H]2[C@@H]3CC(=O)[C@H]4C[C@@H](Br)CC[C@]4(C)[C@H]3CC[C@]12C`, the inhibition at 40 µM in data set [1] was 41.5%. For the same compound, the viability at 24 h, 40 µM in data set [2] stood at 81.5%.

`COC(=O)CC[C@@H](C)[C@H]1CC[C@H]2[C@@H]3CC(=O)[C@H]4C[C@@H](F)CC[C@]4(C)[C@H]3CC[C@]12C`: the inhibition at 40 µM in data set [1] was found to be 43.5%. The viability at 24 h, 40 µM in data set [2] came to 84.1%.

Consider `COC(=O)CC[C@@H](C)[C@H]1CC[C@H]2[C@@H]3[C@H](O)C(=O)[C@H]4C[C@H](O)[C@@H](F)C[C@]4(C)[C@H]3CC[C@]12C`, for which the inhibition at 40 µM in data set [1] came out at 75.1%. Besides, in data set [2], the viability at 24 h, 40 µM stood at 80.5%.

Turning to `COC(=O)CC[C@@H](C)[C@H]1CC[C@H]2[C@@H]3[C@H](F)C(=O)[C@H]4C[C@H](O)[C@@H](O)C[C@]4(C)[C@H]3CC[C@]12C`, the inhibition at 40 µM in data set [1] came out at 68.1%. For the same compound, the viability at 24 h, 40 µM in data set [2] came out at 50.8%.

Turning to `C=C[C@@H](C)[C@H]1CC[C@H]2[C@@H]3[C@H](F)C(=O)[C@H]4C[C@H](O)CC[C@]4(C)[C@H]3CC[C@]12C`, in data set [1], the inhibition at 40 µM came to 44.5%. In addition, in data set [2], the viability at 24 h, 40 µM turned out to be 76.6%.
